Source: publication PMC9841523 (Journal of Medicinal Chemistry, 2022)
Where two headings read alike, the source gives them in different places.

How the values were obtained:
MARK3, MARK4 = test: KiNativ kinase panel; format: cell-based, human; details: 1 μM; MCF-7 Cells; Lys1; EVAIKIIDK
MARK2, MARK3 = test: KiNativ kinase panel; format: cell-based, human; details: 1 μM, MCF-7 Cells, Lys2
[1] = tested on: ZC1/HGK, ZC2/TNIK, ZC3/MINK; test: KiNativ kinase panel; format: cell-based, human; details: 1 μM, MCF-7 Cells, Lys2
MET = biological target: T1, MET (Homo sapiens, UniProt P08581); test: KiNativ kinase panel; format: cell-based; details: 1 μM; MCF-7 Cells; Activation Loop; TGAKLPVK
T1 construct: purchased ActivX Biosciences (KiNativ)
T1 sequence (P08581 25-1390): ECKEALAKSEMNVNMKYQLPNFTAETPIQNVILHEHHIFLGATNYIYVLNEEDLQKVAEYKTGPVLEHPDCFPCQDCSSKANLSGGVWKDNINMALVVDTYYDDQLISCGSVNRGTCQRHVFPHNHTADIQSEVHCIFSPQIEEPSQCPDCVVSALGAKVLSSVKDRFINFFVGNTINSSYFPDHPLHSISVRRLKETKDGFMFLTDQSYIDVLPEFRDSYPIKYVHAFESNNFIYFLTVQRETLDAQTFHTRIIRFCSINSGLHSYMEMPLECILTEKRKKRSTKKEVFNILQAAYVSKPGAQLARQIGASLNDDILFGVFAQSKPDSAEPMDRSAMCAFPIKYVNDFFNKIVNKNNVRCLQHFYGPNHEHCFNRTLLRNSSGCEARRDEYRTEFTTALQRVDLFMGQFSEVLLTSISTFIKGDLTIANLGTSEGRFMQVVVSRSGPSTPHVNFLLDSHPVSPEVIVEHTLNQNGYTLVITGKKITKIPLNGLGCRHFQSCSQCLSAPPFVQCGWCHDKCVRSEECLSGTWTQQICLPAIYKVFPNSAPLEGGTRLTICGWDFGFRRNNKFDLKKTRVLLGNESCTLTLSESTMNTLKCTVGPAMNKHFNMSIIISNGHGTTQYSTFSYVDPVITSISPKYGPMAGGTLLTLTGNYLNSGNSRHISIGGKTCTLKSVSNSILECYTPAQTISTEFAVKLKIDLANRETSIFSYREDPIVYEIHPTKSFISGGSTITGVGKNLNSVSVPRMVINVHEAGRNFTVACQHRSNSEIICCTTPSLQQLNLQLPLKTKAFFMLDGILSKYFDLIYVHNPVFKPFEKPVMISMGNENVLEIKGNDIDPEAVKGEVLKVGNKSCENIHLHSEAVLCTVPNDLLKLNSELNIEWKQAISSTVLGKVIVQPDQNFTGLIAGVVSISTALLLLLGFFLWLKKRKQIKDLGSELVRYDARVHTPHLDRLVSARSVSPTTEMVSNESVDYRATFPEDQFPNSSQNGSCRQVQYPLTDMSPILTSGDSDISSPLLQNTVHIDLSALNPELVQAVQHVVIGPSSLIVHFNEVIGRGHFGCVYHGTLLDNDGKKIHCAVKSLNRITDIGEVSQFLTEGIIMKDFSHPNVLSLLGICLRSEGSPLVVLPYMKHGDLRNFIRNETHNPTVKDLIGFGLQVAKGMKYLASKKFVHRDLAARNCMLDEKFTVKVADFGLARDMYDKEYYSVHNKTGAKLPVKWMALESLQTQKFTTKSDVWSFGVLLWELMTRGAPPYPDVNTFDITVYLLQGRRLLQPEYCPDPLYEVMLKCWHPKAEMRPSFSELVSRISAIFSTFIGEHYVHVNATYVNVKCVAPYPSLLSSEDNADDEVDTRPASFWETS

mTORC1 = biological target: T2, mTORC1 (Homo sapiens, UniProt P42345+P62942); test: Nanosyn Lipid Kinase screen; format: biochemical
T2 construct: purchased BPS lot # 150818-A
Protocol: (§1) complex formation) controls.
(§2) Nanosyn Lipid Kinase screen. Biochemical inhibition of lipid and related protein kinases was determined by Nanosyn (Santa Clara, CA). […]
(§3) was determined by detection of fluorescent substrates using a microfluidic electrophoresis mobility shift assay with a LabChip3000 instrument (Caliper/PerkinElmer). Bodipy labeled phosphatidylinositol 4,5 phosphate (FL-PIP2) (Echelon Biosciences, Salt Lake City, Utah) with 1,2-dioctanoyl-sn-glycero-3-phospho-L-serine (PS) (Avanti Polar Lipids (Alabaster, AL) was […]
(§4) of DNA-PK (Promega, Cat#V4106) on a peptide/dsDNA complex was assayed by detection of ADP formation using ADP-Glo (Promega). Kinase reactions were assembled in 384 well plates in a total volume of 20 µL as follows. For PI3K isoforms, the kinase protein was pre-diluted to 2x concentration in the assay buffer (50 mM HEPES, pH 7.5, 1 mM DTT, 5 mM MgCl 2, 0.01% […]
(§5) well plate (10 µL per well). Compounds were serially pre-diluted in DMSO and added to the protein samples by acoustic dispensing (200 nL, Labcyte Echo). Concentration of DMSO was equalized to 1% in all samples. All test compounds were tested at 12 concentrations, 3x dilution intervals. The control samples (0%-inhibition in the absence of inhibitor, DMSO only) and 100%-inhibition (in the absence of enzyme) were assembled in replicates of four and were used to calculate %-inhibition in the presence of compounds. After 30 min of pre-incubation with compounds, the reactions were initiated by addition of 10 µL of FL-PIP2/PS substrate (10 µM […]
(§6) (PI3Kα,β), 0.5 nM (PI3Kδ) and 10 nM (PI3Kγ). Final concentration of ATP was 100 µM.
(§7) Following incubation, the reactions were quenched by addition of 50 µL of termination buffer (100 mM HEPES, pH 7.5,

PI3K-DELTA = biological target: T3, PI3K-DELTA (Homo sapiens, UniProt O00329); test: Nanosyn Lipid Kinase screen; format: biochemical
T3 construct: purchased Carna lot#09CBS-1198D
Protocol: as §1, §2, §3, §4, §5, §6, §7

PI3K-BETA = biological target: T4, PI3K-BETA (Homo sapiens, UniProt P42338); test: Nanosyn Lipid Kinase screen; format: biochemical
T4 construct: purchased Carna lot # 12CBS-0359H
T4 sequence (P42338 whole entry, species assumed): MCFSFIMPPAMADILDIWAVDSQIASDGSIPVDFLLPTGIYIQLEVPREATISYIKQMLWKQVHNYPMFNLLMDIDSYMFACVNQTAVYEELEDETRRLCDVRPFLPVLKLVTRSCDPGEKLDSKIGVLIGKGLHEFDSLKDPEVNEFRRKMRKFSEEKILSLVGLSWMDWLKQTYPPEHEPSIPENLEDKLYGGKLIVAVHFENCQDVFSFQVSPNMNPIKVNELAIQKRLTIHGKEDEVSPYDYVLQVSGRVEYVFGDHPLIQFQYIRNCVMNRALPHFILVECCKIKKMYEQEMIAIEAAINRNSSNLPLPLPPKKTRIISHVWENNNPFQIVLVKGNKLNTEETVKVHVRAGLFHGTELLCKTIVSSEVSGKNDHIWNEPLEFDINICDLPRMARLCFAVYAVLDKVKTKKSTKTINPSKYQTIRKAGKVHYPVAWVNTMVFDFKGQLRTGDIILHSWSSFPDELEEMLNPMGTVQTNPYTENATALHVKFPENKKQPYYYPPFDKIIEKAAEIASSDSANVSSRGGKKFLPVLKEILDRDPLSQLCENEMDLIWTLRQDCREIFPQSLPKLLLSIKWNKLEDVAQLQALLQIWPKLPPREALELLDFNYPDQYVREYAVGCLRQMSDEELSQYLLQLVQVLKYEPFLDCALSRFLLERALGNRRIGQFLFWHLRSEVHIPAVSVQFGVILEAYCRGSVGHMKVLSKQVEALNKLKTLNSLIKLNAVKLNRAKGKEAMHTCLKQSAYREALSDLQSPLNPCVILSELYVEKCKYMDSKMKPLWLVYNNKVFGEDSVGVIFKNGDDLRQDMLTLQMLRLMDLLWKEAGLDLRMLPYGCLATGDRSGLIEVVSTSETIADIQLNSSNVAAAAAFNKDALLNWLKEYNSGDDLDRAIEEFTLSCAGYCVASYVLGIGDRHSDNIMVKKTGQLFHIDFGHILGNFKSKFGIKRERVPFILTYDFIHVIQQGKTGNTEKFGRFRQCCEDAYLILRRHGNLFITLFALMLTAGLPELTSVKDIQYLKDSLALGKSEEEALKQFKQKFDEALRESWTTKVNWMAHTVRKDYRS
T4 sequence (P27986 whole entry partner, species assumed): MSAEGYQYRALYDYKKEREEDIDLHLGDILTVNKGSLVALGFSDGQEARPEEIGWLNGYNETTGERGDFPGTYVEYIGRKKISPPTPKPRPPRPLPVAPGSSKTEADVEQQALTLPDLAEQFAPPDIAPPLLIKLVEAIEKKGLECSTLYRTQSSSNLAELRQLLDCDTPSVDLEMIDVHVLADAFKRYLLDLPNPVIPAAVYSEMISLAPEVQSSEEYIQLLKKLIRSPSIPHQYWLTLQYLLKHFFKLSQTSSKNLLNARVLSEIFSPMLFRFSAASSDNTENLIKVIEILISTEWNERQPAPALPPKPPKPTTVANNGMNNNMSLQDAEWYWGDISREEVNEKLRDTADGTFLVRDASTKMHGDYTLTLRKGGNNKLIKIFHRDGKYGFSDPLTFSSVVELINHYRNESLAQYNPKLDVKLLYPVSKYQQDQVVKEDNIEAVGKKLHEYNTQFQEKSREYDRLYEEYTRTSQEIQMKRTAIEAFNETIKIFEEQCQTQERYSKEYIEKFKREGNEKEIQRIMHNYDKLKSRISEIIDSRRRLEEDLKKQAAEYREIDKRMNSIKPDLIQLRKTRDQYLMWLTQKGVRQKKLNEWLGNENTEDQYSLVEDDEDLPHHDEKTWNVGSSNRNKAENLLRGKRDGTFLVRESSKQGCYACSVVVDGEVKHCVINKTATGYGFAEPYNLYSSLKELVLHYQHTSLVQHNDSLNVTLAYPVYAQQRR
T4 sequence (P62942 whole entry partner, species assumed): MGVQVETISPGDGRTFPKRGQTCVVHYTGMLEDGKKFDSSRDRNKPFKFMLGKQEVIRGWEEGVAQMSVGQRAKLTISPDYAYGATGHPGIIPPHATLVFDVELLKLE
Protocol: as §1, §2, §3, §4, §5, §6, §7

PI3K-ALPHA = biological target: T5, PI3K-ALPHA (Homo sapiens, UniProt P42336); test: Nanosyn Lipid Kinase screen; format: biochemical
T5 construct: purchased BPS lot #110809
Protocol: as §1, §2, §3, §4, §5, §6, §7

PI3K-GAMMA = biological target: T6, PI3K-GAMMA (Homo sapiens, UniProt P48736); test: Nanosyn Lipid Kinase screen; format: biochemical
T6 construct: purchased Thermo Fisher lot#1716438D
Protocol: as §1, §2, §3, §4, §5, §6, §7

p70S6K, p70S6Kb = test: KiNativ kinase panel; format: cell-based, human; details: 1 μM, MCF-7 Cells, ATP Loop
CHK1 = biological target: T7, CHK1 (Homo sapiens, UniProt O14757); test: KiNativ kinase panel; format: cell-based; details: 1 μM, MCF-7 Cells
T7 construct: host or cells: MCF7
T7 sequence (O14757 1-476): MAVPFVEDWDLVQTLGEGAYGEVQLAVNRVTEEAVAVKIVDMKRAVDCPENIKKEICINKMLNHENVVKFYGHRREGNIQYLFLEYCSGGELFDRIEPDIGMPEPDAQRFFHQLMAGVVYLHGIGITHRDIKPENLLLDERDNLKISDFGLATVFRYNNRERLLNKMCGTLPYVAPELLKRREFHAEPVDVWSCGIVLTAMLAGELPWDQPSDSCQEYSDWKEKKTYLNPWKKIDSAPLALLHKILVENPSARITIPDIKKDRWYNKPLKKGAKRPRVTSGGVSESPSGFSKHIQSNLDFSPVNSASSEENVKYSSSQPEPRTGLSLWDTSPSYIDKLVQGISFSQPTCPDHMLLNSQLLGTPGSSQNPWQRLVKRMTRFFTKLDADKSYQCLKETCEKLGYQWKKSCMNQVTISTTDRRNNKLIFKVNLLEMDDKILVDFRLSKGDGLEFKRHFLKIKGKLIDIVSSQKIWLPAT

CK1g1 = biological target: T8, CK1g1 (Homo sapiens, UniProt Q9HCP0); test: KiNativ kinase panel; format: cell-based; details: 1 μM, MCF-7 Cells, Lys2
T8 construct: endogenous in cells; host or cells: MCF7
T8 sequence (Q9HCP0 whole entry): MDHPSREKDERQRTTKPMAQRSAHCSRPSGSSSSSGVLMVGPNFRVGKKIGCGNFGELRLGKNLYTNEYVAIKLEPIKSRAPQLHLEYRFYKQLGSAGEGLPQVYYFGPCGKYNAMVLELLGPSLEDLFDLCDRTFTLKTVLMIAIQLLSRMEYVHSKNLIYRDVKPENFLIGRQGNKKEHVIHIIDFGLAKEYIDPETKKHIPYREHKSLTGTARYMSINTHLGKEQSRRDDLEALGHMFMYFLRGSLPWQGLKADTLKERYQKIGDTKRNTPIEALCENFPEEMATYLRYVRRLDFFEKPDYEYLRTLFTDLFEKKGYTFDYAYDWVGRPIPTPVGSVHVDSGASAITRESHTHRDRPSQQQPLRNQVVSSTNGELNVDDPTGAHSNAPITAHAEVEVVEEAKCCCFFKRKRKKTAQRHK

MER, TYRO3 = test: KiNativ kinase panel; format: cell-based, human; details: 1 μM; MCF-7 Cells; Activation Loop; KIYSGDYYR
JAK1 domain1 = biological target: T9, JAK1 domain1 (Homo sapiens, UniProt P23458); test: KiNativ kinase panel; format: cell-based; details: 1 μM; MCF-7 Cells; Activation Loop; QLASALSYLEDKDLVHGNVCTKNLLLAR
T9 construct: MCF7 cells were exposed to; endogenous in cells; host or cells: MCF7
T9 sequence (P23458 whole entry, the tested form may be a part): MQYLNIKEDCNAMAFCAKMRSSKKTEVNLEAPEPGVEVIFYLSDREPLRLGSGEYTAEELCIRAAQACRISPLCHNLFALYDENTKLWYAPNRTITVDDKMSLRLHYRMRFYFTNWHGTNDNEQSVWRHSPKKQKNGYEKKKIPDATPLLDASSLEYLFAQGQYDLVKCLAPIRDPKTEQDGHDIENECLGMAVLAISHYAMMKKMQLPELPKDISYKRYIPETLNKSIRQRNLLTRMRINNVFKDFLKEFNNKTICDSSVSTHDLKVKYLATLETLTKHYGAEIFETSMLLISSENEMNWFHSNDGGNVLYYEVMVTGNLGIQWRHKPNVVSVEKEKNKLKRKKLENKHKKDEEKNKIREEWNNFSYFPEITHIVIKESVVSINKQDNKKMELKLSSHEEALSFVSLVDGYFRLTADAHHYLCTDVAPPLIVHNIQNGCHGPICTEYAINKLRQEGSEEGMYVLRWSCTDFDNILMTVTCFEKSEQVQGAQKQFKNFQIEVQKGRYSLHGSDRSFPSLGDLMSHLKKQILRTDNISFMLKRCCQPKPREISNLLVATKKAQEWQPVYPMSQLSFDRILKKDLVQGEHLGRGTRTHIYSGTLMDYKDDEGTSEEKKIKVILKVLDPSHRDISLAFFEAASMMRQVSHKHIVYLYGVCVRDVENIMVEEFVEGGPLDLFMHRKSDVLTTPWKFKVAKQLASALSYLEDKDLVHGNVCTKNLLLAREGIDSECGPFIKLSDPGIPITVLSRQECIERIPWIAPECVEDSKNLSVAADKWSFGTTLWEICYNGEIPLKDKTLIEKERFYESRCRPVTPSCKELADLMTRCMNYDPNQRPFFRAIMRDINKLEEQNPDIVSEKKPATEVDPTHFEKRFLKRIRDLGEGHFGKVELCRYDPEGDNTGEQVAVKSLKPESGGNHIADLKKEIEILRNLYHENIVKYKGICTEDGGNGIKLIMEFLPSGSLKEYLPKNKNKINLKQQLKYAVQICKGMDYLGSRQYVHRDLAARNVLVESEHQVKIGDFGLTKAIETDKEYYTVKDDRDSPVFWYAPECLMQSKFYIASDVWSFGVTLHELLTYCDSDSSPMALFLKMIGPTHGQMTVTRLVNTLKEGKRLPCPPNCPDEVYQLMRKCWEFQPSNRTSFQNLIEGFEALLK

ULK3 = biological target: T10, ULK3 (Homo sapiens, UniProt Q6PHR2); test: KiNativ kinase panel; format: cell-based; details: 1 μM, MCF-7 Cells
T10 construct: endogenous in cells; host or cells: MCF7
T10 sequence (Q6PHR2 1-472): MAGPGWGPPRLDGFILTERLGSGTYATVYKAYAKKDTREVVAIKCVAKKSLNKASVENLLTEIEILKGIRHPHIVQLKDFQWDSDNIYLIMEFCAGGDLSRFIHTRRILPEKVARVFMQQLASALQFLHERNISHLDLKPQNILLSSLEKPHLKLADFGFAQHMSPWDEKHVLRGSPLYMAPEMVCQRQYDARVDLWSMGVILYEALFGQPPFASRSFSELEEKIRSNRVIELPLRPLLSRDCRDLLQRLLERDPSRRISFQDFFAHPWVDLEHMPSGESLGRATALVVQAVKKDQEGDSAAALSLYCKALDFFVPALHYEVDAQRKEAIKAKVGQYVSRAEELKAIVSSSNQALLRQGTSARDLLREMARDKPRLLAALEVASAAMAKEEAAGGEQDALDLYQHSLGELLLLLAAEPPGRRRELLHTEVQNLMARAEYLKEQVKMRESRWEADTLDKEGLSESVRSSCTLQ

SMILES: CO[C@H]1C[C@@H]2CC[C@@H](C)[C@@](O)(O2)C(=O)C(=O)N2CCCC[C@H]2C(=O)O[C@H]([C@H](C)C[C@@H]2CC[C@@H](OC(=O)NCCOCCOCCOCCOCCOCCOCCOCCOCCC(=O)N3CCc4cc(Cn5nc(-c6ccc7oc(N)nc7c6)c6c(N)ncnc65)ccc4C3)[C@H](OC)C2)C[C@@H](O)[C@H](C)/C=C(\C)[C@@H](O)[C@@H](OC)C(=O)[C@H](C)C[C@H](C)/C=C/C=C/C=C/1C [compound 38]
- KiNativ Kinase Panel Data (MARK3, MARK4): 7.2
- KiNativ Kinase Panel Data (MARK2, MARK3; […]): -0.4
- KiNativ Kinase Panel Data ([1]; […]): 8.5
- KiNativ Kinase Panel Data (MET): 3.9
- IC50 (mTORC1): 0.774 nM
- IC50 (PI3K-DELTA): 95 nM
- IC50 (PI3K-BETA): > 1000 nM
- IC50 (PI3K-ALPHA): 41.2 nM
- IC50 (PI3K-GAMMA): > 1000 nM
- KiNativ Kinase Panel Data (p70S6K, p70S6Kb; […]): 20.1
- KiNativ Kinase Panel Data (CHK1; Lys2, […]): -13.6
- KiNativ Kinase Panel Data (CHK1; Other, […]): 25.4
- KiNativ Kinase Panel Data (CK1g1; […]): 4.7
- KiNativ Kinase Panel Data (MER, TYRO3): -0.7
- KiNativ Kinase Panel Data (JAK1 domain1): 0.8
- KiNativ Kinase Panel Data (ULK3; Lys1, […]): 0.5
- KiNativ Kinase Panel Data (ULK3; Lys2, […]): 11.9

SMILES: CO[C@H]1C[C@@H]2CC[C@@H](C)[C@@](O)(O2)C(=O)C(=O)N2CCCC[C@H]2C(=O)O[C@H]([C@H](C)C[C@@H]2CC[C@@H](OC(=O)NCCOCCOCCOCCOCCOCCOCCOCCOCCC(=O)NCCS(=O)(=O)c3ccc(C(=O)N4CCOc5ccc(-c6ccc(N)nc6)cc5C4)c(C)c3F)[C@H](OC)C2)C[C@@H](O)[C@H](C)/C=C(\C)[C@@H](O)[C@@H](OC)C(=O)[C@H](C)C[C@H](C)/C=C/C=C/C=C/1C [compound 40]
- KiNativ Kinase Panel Data (MARK3, MARK4): 13.2
- KiNativ Kinase Panel Data (MARK2, MARK3; DLKAENLLLDADMNIK): 15.7
- KiNativ Kinase Panel Data ([1]; DIKGQNVLLTENAEVK): -13.4
- KiNativ Kinase Panel Data (MET): 6.3
- IC50 (mTORC1; read-out: mTORC1 IC50, Nanosyn, with FKBP12): 0.473 nM
- IC50 (PI3K-DELTA; Nanosyn, with FKBP12, read-out: PI3K-DELTA IC50): > 1000 nM
- IC50 (PI3K-BETA; Nanosyn, with FKBP12): > 1000 nM
- IC50 (PI3K-ALPHA; Nanosyn, with FKBP12, read-out: PI3K-ALPHA IC50): > 1000 nM
- IC50 (PI3K-GAMMA; Nanosyn, with FKBP12, read-out: PI3K-GAMMA IC50): > 1000 nM
- KiNativ Kinase Panel Data (p70S6K, p70S6Kb; GGYGKVFQVR): -4.7
- KiNativ Kinase Panel Data (CHK1; Lys2, DIKPENLLLDER): -10.9
- KiNativ Kinase Panel Data (CHK1; Other, LSKGDGLEFK): 19.6
- KiNativ Kinase Panel Data (CK1g1; DVKPENFLIGR): 1.3
- KiNativ Kinase Panel Data (MER, TYRO3): 7.1
- KiNativ Kinase Panel Data (JAK1 domain1): -1.7
- KiNativ Kinase Panel Data (ULK3; Lys1, EVVAIKCVAK): -22.8
- KiNativ Kinase Panel Data (ULK3; Lys2, NISHLDLKPQNILLSSLEKPHLK): -5.4
